Experimental data reported in patent US20250188123A1, “PROTEASE INHIBITORS” (Regents of the University of Minnesota, priority 2022, published 2025).

Test system: primary hippocampal neurons overexpressing P301S tau (Tau−/+) and littermate controls (Tau−/−)
Assay: mEPSC recording in primary hippocampal neurons from PS19 transgenic mice expressing P301S tau
Type: cell-based, mouse
Settings: 10 μM; for average amplitude of mEPSC responses in Tau−/+ versus Tau−/− neurons: 3 days in culture media; for cumulative curve of mEPSC amplitudes, Tau−/+ compared with Tau−/−: Mann-Whitney U test
Experimental: For these studies, PS19 transgenic mice expressing P301S mutant tau, one of the most used models of FTDP-17 were used (Feinstein S. Faculty Opinions recommendation of Synapse loss and microglial activation precede tangles in a P301S tauopathy mouse model. Faculty Opinions—Post-Publication Peer Review of the Biomedical Literature. 2007; and Takeuchi H, et al., PLoS One., 2011, 6, e21050). To detect functional deficits, primary hippocampal neurons were cultured from heterozygous transgenic mice overexpressing P301S tau (Feinstein S. Faculty Opinions recommendation of Synapse loss and microglial activation precede tangles in a P301S tauopathy mouse model. Faculty Opinions—Post-Publication Peer Review of the Biomedical Literature. 2007; and Takeuchi H, et al., PLoS One., 2011, 6, e21050) and littermate controls, (denoted Tau−/+ and Tau−/− respectively in FIG. 3), and recorded miniature excitatory synaptic currents (mEPSCs).
Briefly, a 22 mm diameter glass coverslip (0.09 mm thickness) was silicone-sealant-fastened to the bottom of a 35 mm culture dish with a bored hole of 20 mm in diameter and sterilized as described by Smith B R, et al., Acta Neuropathologica Communications, 2019, 7(1), 124. Coverslips were coated with poly-D-lysine. Hippocampi were dissected from neonatal Sprague-Dawley timed-pregnancy rats (Envigo) or appropriate transgenic mice and control littermates (see main text) at post-natal day 0-1. Hippocampi were enzymatically digested in Earle's Balanced Salt Solution (EBSS) supplemented with 1% glucose and cysteine-activated papain. Digestion was blocked with dilute BSA (bovine serum albumin) and chicken ovomucoid, and cells were rinsed in fresh EBSS and plated in plating medium (minimal essential medium with Earle's salts, 10% fetal bovine serum, 5% horse serum, 2 mM glutamine, 10 mM sodium pyruvate, 0.6% glucose, 100 U/ml penicillin and […] streptomycin) at 1.0×10^6 cells/dish. After 18 h cell adherence was established. Cells were then grown in a neurobasal medium (a 1:5 mixture of NbActiv4 to NbActiv1; BrainBits LLC) and incubated at 37° C. in a 5% CO2 biological incubator.
Miniature excitatory postsynaptic currents (mEPSCs) were recorded from cultured dissociated mouse hippocampal neurons at 17-21 DIV with a glass pipette (resistance ˜5 MΩ) at holding potentials of −65 mV on an Axopatch 200B amplifier (output gain=0.5; filtered at 1 kHz) as we previously described (Miller E C, et al., Eur J Neurosci., 2014, 39, 214-224). Input and series resistances were assessed and found to have no significant difference before and after recording time (5-20 mins). Recording sweeps lasted 200 ms and were sampled for every 1 s (pClamp, v10, RRID: SCR_011323). Neurons were bathed in bubble-oxygenated artificial cerebrospinal fluid (ACSF) at 23° C. with 100 μM APV (NMDA receptor antagonist), 1 μM TTX (sodium channel blocker), and 100 μM picrotoxin (GABAa receptor antagonist). Passive oxygen perfusion was established with medical-grade 95% O2-5% CO2. ACSF contained (in mM) 119 NaCl, 2.5 KCl, 5.0 CaCl2), 2.5 MgCl2, 26.2 NaHCO3, 1 NaH2PO4, and 11 D-glucose. The internal solution of the glass pipettes contained (in mM) 100 cesium gluconate, 0.2 EGTA, 0.5 MgCl2, 2 ATP, 0.3 GTP, and 40 HEPES. The pH of the internal solution was normalized to 7.2 with cesium hydroxide and diluted to a trace osmotic deficit in comparison to ACSF (˜300 mOsm). All analysis of recordings was performed using an automated detection software suit (Clampfit, 11.0.3, Molecular Devices, San Jose, CA, USA). Minimum analysis parameters were set at greater than 1 min stable recording time and events with amplitudes greater than 3 pA and smaller than 40 pA were included. A mEPSC event was identified by using a template which included a distinct fast-rising depolarization and slow-decaying repolarization. […]

For CC(=O)N[C@H](C(=O)NC(CC(=O)O)C(=O)N[C@H](C(=O)N1CCc2cc(C)ccc2C1C(=O)N[C@H](C=O)CC(=O)O)C(C)C)C(C)C (stereo in doubt) [Compound 30a, (R)-3-((S)-2-acetamido-3-methylbutanamido)-4-(((S)-1-((S)-1-(((S)-1-carboxy-3-oxopropan-2-yl)carbamoyl)-6-methyl-3,4-dihydroisoquinolin-2(1H)-yl)-3-methyl-1-oxobutan-2-yl)amino)-4-oxobutanoic acid, reference compound], the “average amplitude of mEPSC responses in Tau−/+ versus Tau−/− neurons” value was “significantly smaller” and the “cumulative curve of mEPSC amplitudes, Tau−/+ compared with Tau−/−” value (from here on “cumulative curve … compared with Tau−/−”) (3 days) was “shifted to the left”.
With CC(=O)N[C@H](C(=O)N[C@@H](CC(=O)O)C(=O)N[C@H](C(=O)N1CCc2cc(C)ccc2[C@H]1C(=O)N[C@H](C=O)CC(=O)O)C(C)C)C(C)C [Compound 30b, (S)-3-((S)-2-acetamido-3-methylbutanamido)-4-(((S)-1-((S)-1-(((S)-1-carboxy-3-oxopropan-2-yl)carbamoyl)-6-methyl-3,4-dihydroisoquinolin-2(1H)-yl)-3-methyl-1-oxobutan-2-yl)amino)-4-oxobutanoic acid, reference compound] the “cumulative curve … compared with Tau−/−” value (3 days) was “shifted to the left but less markedly”.
With Cc1ccc2c(c1)CCN(C(=O)[C@@H](NC(=O)[C@H](CCCC(=O)O)NC(=O)C1Cc3ccccc3N1)C(C)C)[C@@H]2C(=O)N[C@H](C#N)CC(=O)O (stereo partly drawn) [Compound 1, (8)-6-(((S)-1-((8)-1-(((S)-2-carboxy-1-cyanoethyl)carbamoyl)-6-methyl-3,4-dihydroisoquinolin-2(1H)-yl)-3-methyl-1-oxobutan-2-yl)amino)-5-((S)-indoline-2-carboxamido)-6-oxohexanoic acid] the “average amplitudes of mEPSC responses of Tau−/+ neurons versus those treated with Compound 30a or 30b” value (3 days) was “significantly larger”, the “average amplitude of mEPSC responses in Tau−/+ versus Tau−/− neurons” value was “do not differ significantly” and the “cumulative curve … compared with Tau−/−” value (3 days) was “not significantly shifted”.
